Measured values taken from patent publication US20240140931A1, “TRICYCLIC COMPOUNDS AND USES THEREOF” (HUTCHMED LIMITED, priority 2021, published 2024).

Assays:
[1] = target: Human full-length SHP2 recombinant protein (Homo sapiens (Human), UniProt Q06124); experiment: Assay of full-length SHP2 phosphatase activity; format: biochemical; settings: DiFMUP substrate, with activating peptide
Summary of the method: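 Readout: DiFMUP hydrolysis fluorescence (355/460 nm) after 60 min at 25 °C, following 30 min RT preincubation of compound with peptide-activated full-length human SHP2. Controls were 1% DMSO with or without enzyme; IC50 by four-parameter logistic fit.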

[2] = test system: pERK1/2 (Thr202/Tyr204) in Miapaca2 cells; experiment: Assay of intracellular pERK1/2 (Thr202/Tyr204) phosphorylation; format: cell-based; settings: pERK1/2 (Thr202/Tyr204) HTRF
Summary of the method: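 HTRF read-out (665/615 nm) of phospho-ERK1/2 Thr202/Tyr204 in lysates from Miapaca2 cells exposed for 2 h to 3-fold compound dilutions at 0.5% final DMSO. Controls: lysis buffer without cells and DMSO-treated cells; IC50 from four-parameter logistic fit.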

Row | IC50 [1] [nM] | IC50 ([2]; Homo sapiens, MIA PaCa-2, 2 h) [nM] | IC50 ([2]; 2 hours) [nM] | Compound
1 | 0.6 | 3 |  | NC(=O)C#Cc1ccc2c(c1)[C@@H](N)C1(CCN(c3cnc(Sc4ccnc(N)c4Cl)c(N)n3)CC1)C2 [Compound 129]
2 | 58 |  | 187 | CC#Cc1ccc2c(c1)[C@@H](N)C1(CCN(c3cc(=O)n(-c4ccc(F)c(OC)c4Cl)c(C)n3)CC1)C2 (atropisomer, axis not shown) [Compound 208]
3 | 21 | 294 |  | C#Cc1ccc2c(c1)[C@@H](N)C1(CCN(c3cc(=O)n(-c4cccc5[nH]ncc45)c(C)n3)CC1)C2 [Compound 39]
4 | 53 |  | 284 | C#Cc1ccc2c(c1)[C@@H](N)C1(CCN(c3cc(=O)n(-c4ccc(F)c(F)c4Cl)c(C)n3)CC1)C2 (atropisomer, axis not shown) [Compound 114]
5 | 1 | 39 |  | CNCC#Cc1ccc2c(c1)[C@@H](N)C1(CCN(c3cc(=O)n(-c4cccc(Cl)c4Cl)c(C)n3)CC1)C2 [Compound 67]
6 | 420 | > 3000 |  | C#Cc1ccc2c(c1)CC1(CCN(c3ncc(-c4cn(C)c5ncccc45)c4nccn34)CC1)[C@@H]2N [Compound 6]
7 | 9 | 20 |  | CCNC(=O)C#Cc1ccc2c(c1)[C@@H](N)C1(CCN(c3nc(N)c(Sc4ccnc(N)c4Cl)nc3Cl)CC1)C2 [Compound 224]
8 | 96 | 648 |  | C#Cc1ccc2c(c1)[C@@H](N)C1(CCN(c3cc(=O)n(-c4ccc(OCC)c(Cl)c4)c(C)n3)CC1)C2 [Compound 46]
9 | 44 | 599 |  | Cc1nc(N2CCC3(CC2)Cc2ccc(C#C[C@@H](C)O)cc2[C@H]3N)cc(=O)n1-c1cccc(Cl)c1Cl [Compound 37]
10 | 2 | 6 |  | COCC#Cc1ccc2c(c1)[C@@H](N)C1(CCN(c3cnc(Sc4ccnc(N)c4Cl)c(N)n3)CC1)C2 [Compound 86]
11 | 3 |  | 40 | C#Cc1ccc2c(c1)[C@@H](N)C1(CCN(c3cc(=O)n(-c4cccc(C(F)(F)F)c4Cl)c(C)n3)CC1)C2 (atropisomer, axis not shown) [Compound 118]
12 | 25 |  | 512 | CNC(=O)C#Cc1ccc2c(c1)[C@@H](N)C1(CCN(c3cc(=O)n(-c4ccc(F)c(OC)c4Cl)c(C)n3)CC1)C2 (atropisomer, axis not shown) [Compound 200]
13 | 4 | 40 |  | COCC#Cc1ccc2c(c1)[C@@H](N)C1(CCN(c3cc(=O)n(-c4cccc(OC)c4Cl)c(C)n3)CC1)C2 [Compound 104]
14 | 0.5 | 1 |  | C#Cc1ccc2c(c1)[C@@H](N)C1(CCN(c3ncc(Sc4ccnc(N)n4)nc3CO)CC1)C2 [Compound 116]
15 | 97 | 1150 |  | C#Cc1ccc2c(c1)OC1(CCN(c3cc(=O)n(-c4cccc(Cl)c4Cl)c(C)n3)CC1)[C@@H]2N (atropisomer, axis not shown) [Compound 11]
